Results on three compounds are retold here after patent EP4279069A1, “A PHARMACEUTICAL COMPOSITION FOR USE IN PREVENTING AND/OR REDUCING HEPATOTOXICITY INDUCED BY ACETAMINOPHEN” (priority 2022, dated 2023).

The conditions of data set [1]: median value; cited from earlier work.
The test system of a further data set is rats. Put plainly: Toxicology of acetaminophen and/or nefopam: ALAT and ASAT by UV test according to IFCC recommendations. The note with it: for ALAT / ASAT: after 4 weeks, mean, groups 2, 3, 5: P 505 for 4 days then 645 for 24 days and/or N 30 for 4 days then 38.6 for 24 days (mg/kg/day); for transaminase levels: rats, substance alone, after 4 weeks of treatment, statement in text. The protocol:
Liver function in rats is measured and the progression of liver damage is monitored to screen for liver disease in invasive and non-invasive manner. Alanine aminotransferase (ALAT) and aspartate aminotransferase (ASAT), two markers of hepatotoxicity was assayed using UV test according to IFCC recommendations.
Control animals (group 1) received the vehicle only (1% Tween 80 in 0.5% Methylcellulose in water).

For data set [2] the following is noted: cited from earlier work.
Data set [3] concerns acetaminophen-induced acute liver injury. Put plainly: Assessment of acute hepatotoxicity: serum biomarkers of liver injury (ALAT, ASAT), spectrophotometric assay. To be noted: for ALAT / ASAT: i.p., 24h after treatment, individual mice. The protocol:
192 male mice CD-1 (Janvier, France) (12 mice per group) with an age of 7-10 weeks were used. They received the products intraperitoneally (i.p.).
Determination of serum biomarkers: Liver injury was evaluated by measuring the serum levels of alanine aminotransferase (ALAT), and aspartate aminotransferase (ASAT) using a spectrophotometric assay method.
(§1) Protocol: 24h after treatments, animals were euthanized. Plasma and liver were sampled.
Statistical analysis: Results were expressed as means ± standard error of mean (S.E.M.).

The test system is the same in data set [4]. Briefly: Assessment of acute hepatotoxicity: histopathological assessment of liver lesions (H&E, necrosis grade). It counts as in vivo, mice CD-1. On the procedure: They received the products intraperitoneally (i.p.).
Histopathological assessment of liver lesions: The histopathological lesions in the liver were evaluated as follows: The collected tissues were processed with standard procedures and embedded in paraffin. The embedded tissues were sectioned into 4 µm thick sections using a microtome. These tissue sections were stained with hematoxylin and eosin (H&E) according to standard techniques and examined by a light microscope.
The severity of necrotic lesions in liver parenchyma was determined. Grade 0: No pathological change Grade 1: Presence of degenerated hepatocytes with only rare foci of necrosis Grade 2: Small area of mild centrilobular necrosis around the central vein Grade 3: Area of mild centrilobular necrosis severer than Grade 2 Grade 4: Centrilobular necrosis severer than Grade 3
as §1

Where [5] appears, read: Vehicle + 200 mg/kg NAC, 200 mg/kg.
Where [6] appears, read: Vehicle + 1.1 mg/kg nefopam, 1.1 mg/kg.
[7] abbreviates: Vehicle + 2.2 mg/kg nefopam, 2.2 mg/kg.
Setting [8] is: Vehicle + 4.4 mg/kg nefopam, 4.4 mg/kg.
Where [9] appears, read: nefopam at doses of 17.65 and 35.29 mg/kg (i.p.) co-administered with acetaminophen, mice.

“And” between values parts separate entries of the source, which are not always exact repeats. Equal entries are not always repeated.

The term half-life denotes how long it takes for the measured level to halve.

As to `CC(=O)Nc1ccc(O)cc1` [Acetaminophen, N-acetyl-p-aminophenol], in data set [1], the “median effective analgesic dose” value is on record as 500 mg. In addition, the ALAT is on record as 49 U/L in the data set on rats (female rats) and 59 U/L with rats (male rats). Besides, the values for the ASAT in the data set on rats (female rats) and in the data set with rats (male rats) were 101 U/L and 110 U/L, respectively. Further, the transaminase levels result in the data set on rats is “increases transaminase levels”; in the data set with rats (listed as acetaminophen), “increase in transaminase levels”. For the same compound, the half-life in data set [2] (individuals without liver injury) is 2 to 3 h. For the same compound, the “bioavailability (drug being absorbed)” value in data set [2] (taken orally) is given as around 80%. For the same compound, the “metabolized through the activity of CYPs (primarily CYP2E) to N-acetyl-p-benzoquinoneimine (NAPQI)” value in data set [2] (therapeutic doses) was at most 5%.
In the case of `CC(=O)N[C@@H](CS)C(=O)O` [NAC, N-acetylcysteine], in data set [3] (setting [5]), the ALAT is 41 U/L (2×) and 26 U/L and 27 U/L and 30 U/L and 58 U/L and 31 U/L and 28 U/L and 14 U/L and 29 U/L and 71 U/L and 51 U/L; the ASAT was 292 U/L and 101 U/L and 114 U/L and 184 U/L and 320 U/L and 160 U/L and 360 U/L and 107 U/L and 283 U/L and 723 U/L and 170 U/L and 183 U/L. In addition, the Score in data set [4] (Vehicle + 200 mg/kg NAC, i.p., 24h after treatment, individual mice) is reported as 0.
`CN1CCOC(c2ccccc2)c2ccccc2C1` (stereo not shown) [nefopam, 5-methyl-1-phenyl-1,3,4,6-tetrahydro-2,5-benzoxazo-cine]: the ALAT in data set [3] (setting [6]) was 17 U/L and 29 U/L and 55 U/L (2×) and 51 U/L and 23 U/L and 31 U/L and 45 U/L and 19 U/L and 49 U/L and 27 U/L and 28 U/L; in data set [3] (setting [7]) it was 30 U/L (2×) and 19 U/L (2×) and 52 U/L and 152 U/L and 24 U/L and 27 U/L and 35 U/L and 60 U/L and 57 U/L and 25 U/L; in data set [3] (setting [8]) it was 55 U/L and 25 U/L and 22 U/L and 43 U/L (2×) and 51 U/L and 26 U/L and 28 U/L and 42 U/L and 24 U/L and 71 U/L and 23 U/L; with rats (female rats), 31 U/L; with rats (male rats), 35 U/L. For the same compound, the ASAT in data set [3] (setting [6]) was 98 U/L and 266 U/L and 180 U/L and 152 U/L and 193 U/L and 181 U/L and 136 U/L and 426 U/L and 110 U/L and 97 U/L and 210 U/L; in data set [3] (setting [7]), 111 U/L and 395 U/L and 59 U/L and 325 U/L and 119 U/L and 118 U/L and 221 U/L and 129 U/L and 269 U/L and 785 U/L and 148 U/L; in data set [3] (setting [8]) it was 541 U/L and 128 U/L and 111 U/L and 93 U/L and 151 U/L and 79 U/L and 89 U/L and 531 U/L and 71 U/L and 466 U/L; in the data set on rats (female rats), 96 U/L; in the data set on rats (male rats), 83 U/L. In addition, the acetaminophen-induced hepatotoxicity result in data set [3] (co-administered with acetaminophen 300 mg/kg i.p., mice) is on record as “able to abolish acetaminophen-induced hepatotoxicity”. For the same compound, the “ASAT and ALAT plasma concentration” value in data set [3] (mouse, in vivo) is on record as “did not influence”. Further, the “ASAT and ALAT elevations” value in data set [3] (setting [9]) is listed as “significantly reduced”. The histological score was 0 in data set [4] (mouse, in vivo) and “significantly reduced” in data set [4] (setting [9]).
